The results in this text go back to patent US20070060629A1, “Large conductance calcium-activated k channel opener” (priority 2003, published 2007).

The first test has as its system isolated rabbit urinary bladder. Kind of test: Relaxation effect on potassium-induced contraction of isolated rabbit urinary bladder. Format: cell-based. As to conditions: Oryctolagus cuniculus; isolated rabbit urinary bladder strips pre-contracted with high-K+ (30 mM); relaxation relative to 10^-4 M papaverine as 100%; rank A, B or C; read-out: IC50 value (50% relaxation concentration). On the procedure: Relaxation Effect on Potassium-Induced Contraction of Isolated Rabbit Urinary Bladder
Urinary bladder was isolated from Male NZW rabbits (body weight: 2.0-3.5 kg) and immersed in ice-cold Krebs-bicarbonate solution (in mM: 118 NaCl, 4.7 KCl, 2.55 CaCl2, 1.18 MgSO4, 1.18 KH2PO4, 24.88 NaHCO3 and 11.1 glucose). The urinary bladder was cut into longitudinal strips (5 mm length, 3-4 mm width) after mucosal layer was removed.
Preparations were mounted in organ baths containing 10 ml of Krebs solution maintained at 37° C. and gassed with 95% O2/5% CO2. Accordingly, preparations were stretched with an initial tension of 2.0±1.0 g, and changes in isometric tension were measured by force-displacement transducer. The preparations were pre-contracted by changing organ-bath solution into high-K^+ (30 mM) Krebs solution (in mM: 118 NaCl, […], 2.55 CaCl2, 1.18 MgSO4, 1.18 KH2PO4, 24.88 NaHCO3 and 11.1 glucose).
After stable tension was obtained, compounds were added into organ baths cumulatively (10^−8 M-10^−4 M). The effects of compounds were expressed as a percentage of the maximum relaxation produced by 1O^−4 M papaverine as 100%. 50% relaxation concentration (IC50) was calculated and IC50 value range (μM) of compounds of the present invention was shown in the following Table 68 with a rank of A, B or C. These ranges are as mentioned below. 3 μM≧C>1 μM≧B>0.5 μM≧A
On to `COC(=O)NCCNS(=O)(=O)c1ccc(-n2nc(C(F)(F)F)cc2-c2ccc(C)cc2)cc1` [Example 59, methyl {2-[({4-[5-(4-methylphenyl)-3-(trifluoromethyl)-1H-pyrazol-1-yl]phenyl}sulfonyl)amino]-ethyl}carbamate], for which the IC50 is 1 to 3 µM.

Take `Cc1onc(-c2cccnc2)c1-c1ccc(C(=O)NCCO)cc1` [Example 207]: the IC50 was 0.5 to 1 µM. For the compound `Cc1onc(-c2ccccc2)c1-c1ccc(C(N)=O)c(O)c1` [Example 155, 2-hydroxy-4-(5-methyl-3-phenylisoxazol-4-yl)benzamide], the IC50 was 1 to 3 µM. Still for that read-out and setting: to `Cc1ccc(-c2cc(C(F)(F)F)nn2-c2ccc(C(=O)NCCO)cc2)cc1` [Example 51] belongs 1 to 3 µM; to `COCCNS(=O)(=O)c1ccc(-n2nc(C(F)(F)F)cc2-c2ccc(C)cc2)cc1` [Example 30], 1 to 3 µM. On the same count and under the same terms, then `Cc1onc(-c2ccc(N(C)C)cc2)c1-c1ccc(S(N)(=O)=O)cc1` [Example 115], with less than 0.5 µM; and `Cc1cccc(-n2nc(C(F)(F)F)cc2-c2ccc(C)c(S(N)(=O)=O)c2)c1` [Example 45], with 1 to 3 µM; and `Cc1onc(-c2ccccc2)c1-c1ccc(OCCO)cc1` [Example 152, 2-[4-(5-methyl-3-phenylisoxazol-4-yl)phenoxy]ethanol], with 0.5 to 1 µM. On the same count and under the same terms, to `Cc1ccc(-c2cc(C(F)(F)F)nn2-c2ccccc2)cc1S(=O)(=O)NCCO` [Example 46] belongs 1 to 3 µM.

Another test deals with anesthetized rats. Kind of test: Inhibitory effect on the rhythmic bladder contractions induced by substance P in anesthetized rats. Format: in vivo, rat. The settings on record: time during which frequency of rhythmic bladder contraction was completely inhibited; 0.25 mg/kg of compound, intravenous; substance P-infused anesthetized rats. On the procedure:
Inhibitory Effect on the Rhythmic Bladder Contractions Induced by Substance P in Anesthetized Rats
For the experiments, Sprague-Dawley female rats (9 to 12 weeks old) weighing between 200 to 300 g were used. After urethane anesthetization (subcutaneously administered with a dose of 1.2 g/kg), cannulae were placed in both right and left femoral veins. One intravenous catheter was used for administration of compounds, and the other was for the substance P (0.33 μg/kg/min) infusion. We also cannulated into ureter to pass urine. Polyethylene catheters were inserted into carotid artery for continuous monitoring of arterial blood pressure and heart rate. For continuous infusion, transurethral bladder catheter was inserted into the bladder through the urethra and tied in place by a ligature around the urethral orifice. One end of the catheter was attached to a pressure transducer in order to measure intravesical pressure. The other end of the catheter was used for infusion of saline into the bladder. After stabilization of blood pressure and heart rate and after the bladder was emptied, cystometry was performed by filling the bladder slowly with about 0.6 ml of saline. After about 10 minutes, intravenous infusion of substance P (0.33 μg/kg/min) was started for stabilization of the micturition reflex. Compounds were administered after stable rhythmic bladder contraction was obtained over 15 minutes. All compounds were dissolved or suspended in saline containing 0.5% Tween 80 for intravenous administration (0.1 ml/kg).
Also, pre-administration of iberiotoxin, a selective large conductance calcium-activated K channel blocker (0.15 mg/kg, intravenous administration) reduced inhibitory effect of the compounds of the present invention on the rhythmic bladder contraction.
As for `Cc1onc(-c2ccccc2)c1-c1ccc(S(=O)(=O)NO)cc1` [Example 171], the “100% inhibiting time” value is on record as 12.8 min. Still for that read-out and setting: to `COC(=O)NCCNS(=O)(=O)c1ccc(-n2nc(C(F)(F)F)cc2-c2ccc(C)cc2)cc1` [Example 59, methyl {2-[({4-[5-(4-methylphenyl)-3-(trifluoromethyl)-1H-pyrazol-1-yl]phenyl}sulfonyl)amino]-ethyl}carbamate] belongs 5.7 min; to `Cc1onc(-c2cccnc2)c1-c1ccc(C(=O)NCCO)cc1` [Example 207], 13.9 min; to `Cc1onc(-c2ccccc2)c1-c1ccc(C(=O)N[C@@H](C)CO)cc1` [Example 135, N-[(1S)-2-hydroxy-1-methylethyl]-4-(5-methyl-3-phenylisoxazol-4-yl)benzamide], 17.8 min.
